{
  "source": "patent US20230257385A1",
  "about": "“SALT AND SOLID FORMS OF TABERNANTHALOG” (priority 2021, published 2023)",
  "key": {"[1]": {"test": "Equilibrium humidity evaluation 75% RH/40° C., 10 days (Example 8, Experiment 6)", "format": "physicochemical", "procedure": "The experimental procedure that accompany this experiment is provided in Section G.ii.\nAll forms were maintained under constant equilibrium humidity (75% RH). XRPD, DSC, TGA, PLM and ^1H NMR analyses were performed on the absorbents at t=5 d and t=10 d, to confirm their physical fates and to determine the extent of residual solvent exchange or sequestration.\n100 mg portions of Tabernanthalog salts ([…]) were placed in the relevant open vials. The powders were finely divided and distributed evenly over the base of the vial, such that equal material coverage across the panel was observed. These samples were then maintained 40° C. under 75% RH. The samples were sub-sampled at intervals of 5 and 10 days and analyzed by ^1H NMR, HPLC, XRPD, DSC, TGA and PLM, for evidence of phase change or chemical degradation."}, "[2]": {"test": "DVS analyses of sorbate salt Form A / Form C (Example 10)", "format": "physicochemical", "conditions": "0% to 90% to 0% RH", "from_the_text": "DVS analyses of Form A (Performed on batch reference: Experiment 11-Sample -A1) To determine whether Form A underwent form change at high % RH, DVS residues of Form A, from 0 to 80% RH and 0 to 90% RH, were examined. The specimens were equilibrated to constant mass, at 80% and 90% RH set-points, removed, placed in a capped vial, and analysed by XRPD and DSC. Based on the SC-XRD at 100 K, no regular voids in the crystal structure were large enough to accommodate non-crystal-bonded, molecular water with minimum probe radius of 1.4 Å.\nThe moisture sorption properties of the feed API were analysed by DVS Intrinsic instrument (Surface Measurement System). Approximately 20 to 50 mg of API was weighed onto an aluminium pan and loaded into the instrument equilibrated at 25° C. The sample was equilibrated under a dry atmosphere (0% relative humidity) for 60 minutes, before increasing the humidity from 0% to 30% at 5% step increment and from 30% to 90% at 10% step increment. A desorption cycle was also applied from 90% to 30% (10% step decrement) and from 30% to 0% (5% step decrement). A rate of change in mass per time unit (dm/dt) of 0.002%/min was set as the equilibrium parameter. Kinetic and isotherm graphs were calculated.\n5. DVS Analyses: 0% to 90% DVS Mass Per Unit Time Equilibrated at Dm/Dt (0.0002%/Min)"}},
  "data": [
    {"smiles": "COc1ccc2c3c([nH]c2c1)CCN(C)CC3.O=C(O)/C=C/C(=O)O", "note": "[Sample 6-A2]", "values": [
      {"measurement": "Tabernanthalog RRT = 1.00 (trended HPLC data, chemical purity)", "setting": "[1]; Fumarate salt, t = 10 d at 75% RH at 40° C.", "value": 98.71}
    ]},
    {"smiles": "COc1ccc2c3c([nH]c2c1)CCN(C)CC3.O=C(O)/C=C/C(=O)O", "note": "[Sample 6-A1]", "values": [
      {"measurement": "Tabernanthalog RRT = 1.00 (trended HPLC data, chemical purity)", "setting": "[1]; Fumarate salt, t = 5 d at 75% RH at 40° C.", "value": 99.12}
    ]},
    {"smiles": "C/C=C/C=C/C(=O)O.COc1ccc2c3c([nH]c2c1)CCN(C)CC3.O", "note": "[Form C (Pattern #2)]", "values": [
      {"measurement": "form change during DVS", "setting": "[2]", "value": "reverted to Form A on the desorption cycle"}
    ]},
    {"smiles": "C/C=C/C=C/C(=O)O.COc1ccc2c3c([nH]c2c1)CCN(C)CC3", "note": "[Sample 6-D2]", "values": [
      {"measurement": "Tabernanthalog RRT = 1.00 (trended HPLC data, chemical purity)", "setting": "[1]; Sorbate salt, t = 10 d at 75% RH at 40° C.", "value": 99.70}
    ]},
    {"smiles": "COc1ccc2c3c([nH]c2c1)CCN(C)CC3.O=C(O)C(O)C(O)C(=O)O", "note": "[Sample 6-B2]", "values": [
      {"measurement": "Tabernanthalog RRT = 1.00 (trended HPLC data, chemical purity)", "setting": "[1]; Tartrate salt, t = 10 d at 75% RH at 40° C.", "value": 98.82}
    ]},
    {"smiles": "C/C=C/C=C/C(=O)O.COc1ccc2c3c([nH]c2c1)CCN(C)CC3", "note": "[Sample 6-D1]", "values": [
      {"measurement": "Tabernanthalog RRT = 1.00 (trended HPLC data, chemical purity)", "setting": "[1]; Sorbate salt, t = 5 d at 75% RH at 40° C.", "value": 99.52}
    ]}
  ]
}
